{
  "source": "patent US20120328565A1",
  "about": "“ANTIVIRAL COMPOUNDS” (priority 2011, published 2012)",
  "note": "pIC50: −log10 of the molar value.",
  "data": [
    {"tested_on": "HCV GT-1b Con1 subgenomic replicon", "test": "HCV GT1b replicon luciferase reporter assay (2209-23 cells)", "assay_type": "cell-based", "conditions": "Hepatitis C virus, 2209-23 cell line (Huh-7 with GT-1b Con1 subgenomic replicon), Renilla luciferase read 72 hours after compound addition", "text": "Determination of compounds HCV GT1b inhibitory replicon activity using the replicon luciferase reporter assay\nThe 2209-23 cell line was developed at Roche by stable transfection of the hepatoma cell line Huh-7 with a GT-1b Con1 subgenomic bicistronic replicon as previously described. Subgenomic replicon cell line was established in cured Huh7 cells, obtained from R. Bartenschlager (J. Virol. 2003 March; 77 (5):3007-19) The GT-1a H77 subgenomic replicon vector pRLuc H771b 75 S/I, was created by replacing the non structural region of the GT-1b Con1 subgenomic replicon by the one of the H77 strain, except for the first 75 amino acids of the NS3 protein that are from GT-1b Con1 strain. (J. Virol. 2001 77:5352-59) The GT-1a pRLuc H771b 75 S/I subgenomic replicon cell line was established in cured Huh7 cells, obtained from R. Bartenschlager. (J. Virol. 2003 March; 77 (5):3007-19)\nAll the subgenomic replicon cell lines were cultured in Dulbecco's Modified Eagle Medium (DMEM-Glutamax™-I; Invitrogen Cat #10569-010). The medium was supplemented with 10% Fetal Bovine Serum (Invitrogen Cat #10082-147), 1% penicillin/streptomycin (Mediatech Cat #30-002-CI) and 500 μg/ml of G418 (Mediatech Cat #30-234-CI). Cells were maintained at 37° C. in a humidified 5% CO2 atmosphere.\n2209-23 cells were plated at a cell density of 5000 cells per well in 96 well plates (Becton Dickinson, Cat #35 3296). Cells were plated in 90 μl of Dulbecco's Modified Eagle Medium (DMEM-Glutamax™-I), (Invitrogen Cat #10569-010) medium was supplemented with 5% Fetal Bovine Serum (Invitrogen Cat #10082-147), 1% penicillin/streptomycin (Mediatech Cat #30-002-CI). The pRluc H771b 75 S/I cells were plated in 96-well plate at 3000 cells/well in DMEM-Glutamax™-I containing 5% FBS and 1% penicillin/streptomycin in 90 μl final volume. Cells were allowed to equilibrate for 24 hours at 37° C. and 5% CO2 at which time compounds were added. Compounds (or medium as a control) were added 24 hours post-plating in 3 fold dilutions at a final DMSO concentration of 1% in 10 ul volume. Renilla luciferase reporter signal was read 72 hours after addition of compounds using the Renilla Luciferase Assay System (Promega, cat #E2820). EC50 values were defined as the compound concentration at which a 50% reduction in the levels of renilla luciferase reporter was observed as compared to control samples in the absence of compound and was determined by non-linear fitting of compound dose-response data. The EC50 was approximated if maximum percentage inhibition was less than 90% and more than 70%.", "values": [
      {"molecule": "COC(=O)N[C@H](C(=O)N1CCC[C@H]1C(=O)NC(=O)Nc1cccc(-c2ccc(-c3cnc([C@@H]4CCCN4C(=O)[C@@H](NC(=O)OC)C(C)C)[nH]3)cc2)c1)C(C)C", "note": "[Compound I-2, ((S)-1-{(S)-2-[3-(4′-{2-[(S)-1-((S)-2-Methoxycarbonylamino-3-methyl-butyryl)-pyrrolidin-2-yl]-3H-imidazol-4-yl}-biphenyl-3-yl)-ureidocarbonyl]-pyrrolidine-1-carbonyl}-2-methyl-propyl)-carbamic acid methyl ester]", "pIC50": 8.07},
      {"molecule": "COC(=O)N[C@H](C(=O)N1CCC[C@H]1C(=O)NC(=O)Nc1ccc(-c2ccc(-c3cnc([C@@H]4CCCN4C(=O)[C@@H](NC(=O)OC)C(C)C)[nH]3)cc2)cc1F)C(C)C", "note": "[Compound I-12, ((S)-1-{(S)-2-[5-(3′-Fluoro-4′-{3-[(S)-1-((S)-2-methoxycarbonylamino-3-methyl-butyryl)-pyrrolidine-2-carbonyl]-ureido}-biphenyl-4-yl)-1H-imidazol-2-yl]-pyrrolidine-1-carbonyl}-2-methyl-propyl)-carbamic acid methyl ester]", "pIC50": 10.19},
      {"molecule": "COC(=O)N[C@H](C(=O)N1CCC[C@H]1c1ncc(-c2ccc(-c3ccc(NC(=O)NC(=O)[C@@H]4CCCN4C(=O)[C@H](NC(=O)OC)c4ccccc4)cn3)cc2)[nH]1)C(C)C", "note": "[Compound I-10, [(S)-1-((S)-2-{5-[4-(5-{3-[(S)-1-((R)-2-Methoxycarbonylamino-2-phenyl-acetyl)-pyrrolidine-2-carbonyl]-ureido}-pyridin-2-yl)-phenyl]-1H-imidazol-2-yl}-pyrrolidine-1-carbonyl)-2-methyl-propyl]-carbamic acid methyl ester]", "pIC50": 10.39},
      {"molecule": "COC(=O)N[C@H](C(=O)N1CCC[C@H]1C(=O)NC(=O)Nc1ccc(-c2ccc(-c3cnc([C@@H]4CCCN4C(=O)[C@@H](NC(=O)OC)C(C)C)[nH]3)cc2)cc1)C(C)C", "note": "[Compound I-1, ((S)-1-{(S)-2-[3-(4′-{2-[(S)-1-((S)-2-Methoxycarbonylamino-3-methyl-butyryl)-pyrrolidin-2-yl]-3H-imidazol-4-yl}-biphenyl-4-yl)-ureidocarbonyl]-pyrrolidine-1-carbonyl}-2-methyl-propyl)-carbamic acid methyl ester]", "pIC50": 9.33},
      {"molecule": "COC(=O)N[C@H](C(=O)N1CCC[C@H]1C(=O)NC(=O)Nc1ccc2nc(-c3ccc(-c4cnc([C@@H]5CCCN5C(=O)[C@@H](NC(=O)OC)C(C)C)[nH]4)cc3)sc2c1)C(C)C", "note": "[Compound I-9, [(S)-1-((S)-2-{5-[4-(6-{3-[(S)-1-((S)-2-Methoxycarbonylamino-3-methyl-butyryl)-pyrrolidine-2-carbonyl]-ureido}-benzothiazol-2-yl)-phenyl]-1H-imidazol-2-yl}-pyrrolidine-1-carbonyl)-2-methyl-propyl]-carbamic acid methyl ester]", "pIC50": 9.46},
      {"molecule": "COC(=O)N[C@H](C(=O)N1CCC[C@H]1c1ncc(-c2ccc(-c3nc4ccc(NC(=O)NC(=O)[C@@H]5CCCN5C(=O)[C@@H](c5ccccc5)N(C)C)cc4s3)cc2)[nH]1)C(C)C", "note": "[Compound I-11, [(S)-1-((S)-2-{5-[4-(6-{3-[(S)-1-((R)-2-Dimethylamino-2-phenyl-acetyl)-pyrrolidine-2-carbonyl]-ureido}-benzothiazol-2-yl)-phenyl]-1H-imidazol-2-yl}-pyrrolidine-1-carbonyl)-2-methyl-propyl]-carbamic acid methyl ester]", "pIC50": 10.54},
      {"molecule": "COC(=O)N[C@H](C(=O)N1CCC[C@H]1c1ncc(-c2ccc(-c3ccc(CNC(=O)NC(=O)[C@@H]4CCCN4C(=O)[C@H](NC(=O)OC)c4ccccc4)cc3)cc2)[nH]1)C(C)C", "note": "[Compound I-6, ((S)-1-{(S)-2-[5-(4′-{3-[(S)-1-((R)-2-Methoxycarbonylamino-2-phenyl-acetyl)-pyrrolidine-2-carbonyl]-ureidomethyl}-biphenyl-4-yl)-1H-imidazol-2-yl]-pyrrolidine-1-carbonyl}-2-methyl-propyl)-carbamic acid methyl ester]", "pIC50": 8.17},
      {"molecule": "COC(=O)N[C@H](C(=O)N1CCC[C@H]1c1ncc(-c2ccc(-c3ccc(NC(=O)NC(=O)[C@@H]4CCCN4C(=O)[C@@H](c4ccccc4)N(C)C)cc3)cc2)[nH]1)C(C)C", "note": "[Compound I-4, ((S)-1-{(S)-2-[5-(4′-{3-[(S)-1-((R)-2-Dimethylamino-2-phenyl-acetyl)-pyrrolidine-2-carbonyl]-ureido}-biphenyl-4-yl)-1H-imidazol-2-yl]-pyrrolidine-1-carbonyl}-2-methyl-propyl)-carbamic acid methyl ester]", "pIC50": 11.15},
      {"molecule": "COC(=O)N[C@H](C(=O)N1CCC[C@H]1c1ncc(-c2ccc(-c3ccc(NC(=O)NC(=O)[C@@H]4CCCN4C(=O)[C@H](NC(=O)OC)c4ccccc4)cc3)cc2)[nH]1)C(C)C", "note": "[Compound I-3, ((S)-1-{(S)-2-[5-(4′-{3-[(S)-1-((R)-2-Methoxycarbonylamino-2-phenyl-acetyl)-pyrrolidine-2-carbonyl]-ureido}-biphenyl-4-yl)-1H-imidazol-2-yl]-pyrrolidine-1-carbonyl}-2-methyl-propyl)-carbamic acid methyl ester]", "pIC50": 11.05},
      {"molecule": "COC(=O)N[C@H]1CCC(=O)N2CCC[C@@H](c3ncc(-c4ccc(-c5ccc(NC(=O)NC(=O)[C@@H]6CCCN6C(=O)[C@H](NC(=O)OC)c6ccccc6)cc5)cc4)[nH]3)N2C1=O", "note": "[Compound I-7, {(4S,7S)-4-[5-(4′-{3-[(S)-1-((R)-2-Methoxycarbonylamino-2-phenyl-acetyl)-pyrrolidine-2-carbonyl]-ureido}-biphenyl-4-yl)-1H-imidazol-2-yl]-6,10-dioxo-octahydro-pyridazino[1,2-a][1,2]diazepin-7-yl}-carbamic acid methyl ester]", "pIC50": 9.37},
      {"molecule": "COC(=O)N[C@H](C(=O)N1CCC[C@H]1C(=O)NC(=O)NCc1ccc(-c2ccc(-c3cnc([C@@H]4CCCN4C(=O)[C@@H](NC(=O)OC)C(C)C)[nH]3)cc2)cc1)C(C)C", "note": "[Compound I-5, ((S)-1-{(S)-2-[5-(4′-{3-[(S)-1-((S)-2-Methoxycarbonylamino-3-methyl-butyryl)-pyrrolidine-2-carbonyl]-ureidomethyl}-biphenyl-4-yl)-1H-imidazol-2-yl]-pyrrolidine-1-carbonyl}-2-methyl-propyl)-carbamic acid methyl ester]", "pIC50": 8.70},
      {"molecule": "COC(=O)N[C@H](C(=O)N1CCC[C@H]1c1ncc(-c2ccc(-c3nc4ccc(NC(=O)NC(=O)[C@@H]5CCCN5C(=O)OC(C)(C)C)cc4s3)cc2)[nH]1)C(C)C", "note": "[Compound I-8, (S)-2-{3-[2-(4-{2-[(S)-1-((S)-2-Methoxycarbonylamino-3-methyl-butyryl)-pyrrolidin-2-yl]-3H-imidazol-4-yl}-phenyl)-benzothiazol-6-yl]-ureidocarbonyl}-pyrrolidine-1-carboxylic acid tert-butyl ester]", "pIC50": 8.11}
    ]}
  ]
}
